Data taken from the supplement of paper PMC10307832.

Tests used:
Test in all cases: relative viability (nuclei count vs DMSO), 5 days (fraction); higher = more cells survive
AZ3146 + Olaparib = compound: CN1CCC(CC1)OC2=CC(=C(C=C2)NC3=NC=C4C(=N3)N(C(=O)N4C)C5CCCC5)OC [AZ3146] + O=C(c1cc(Cc2n[nH]c(=O)c3ccccc23)ccc1F)N1CCN(C(=O)C2CC2)CC1 [Olaparib] (partner 8 µM)
Method in brief: (§1)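 Lung cancer cell lines were pin-tool dosed in 1536-well plates on the day after seeding, with either a lone drug or a fixed anchor-drug dose plus five library-drug doses (not always all listed) in √10 steps. Nuclei were counted on 4× images after 5 days. Relative viability is the ratio of treated-well to vehicle-well nuclei counts, with each value a median of duplicate plates.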

AZ3146 + Crizotinib = compound: CN1CCC(CC1)OC2=CC(=C(C=C2)NC3=NC=C4C(=N3)N(C(=O)N4C)C5CCCC5)OC [AZ3146] + C[C@@H](Oc1cc(-c2cnn(C3CCNCC3)c2)cnc1N)c1c(Cl)ccc(F)c1Cl [Crizotinib] (partner 1 µM)
Method in brief: as §1

GSK-J4 + Linsitinib = compound: CCOC(=O)CCNc1cc(N2CCc3ccccc3CC2)nc(-c2ccccn2)n1 [GSK-J4] + C[C@]1(O)C[C@@H](c2nc(-c3ccc4ccc(-c5ccccc5)nc4c3)c3c(N)nccn32)C1 [Linsitinib] (partner 1 µM)
Method in brief: as §1

AZ3146 + Pemetrexed = compound: CN1CCC(CC1)OC2=CC(=C(C=C2)NC3=NC=C4C(=N3)N(C(=O)N4C)C5CCCC5)OC [AZ3146] + Nc1nc2[nH]cc(CCc3ccc(C(=O)N[C@@H](CCC(=O)O)C(=O)O)cc3)c2c(=O)[nH]1 [Pemetrexed] (partner 0.2 µM)
Method in brief: as §1

Row | Cell Line | relative viability (AZ3146 + Olaparib; first compound 0.08 µM) | relative viability (AZ3146 + Olaparib; first compound 0.253 µM) | relative viability (AZ3146 + Olaparib; first compound 0.8 µM) | relative viability (AZ3146 + Olaparib; first compound 2.53 µM) | relative viability (AZ3146 + Olaparib; first compound 8 µM) | relative viability (AZ3146 + Crizotinib; first compound 0.08 µM) | relative viability (AZ3146 + Crizotinib; first compound 0.253 µM) | relative viability (AZ3146 + Crizotinib; first compound 0.8 µM) | relative viability (AZ3146 + Crizotinib; first compound 2.53 µM) | relative viability (AZ3146 + Crizotinib; first compound 8 µM) | relative viability (GSK-J4 + Linsitinib; first compound 0.5 µM) | relative viability (GSK-J4 + Linsitinib; first compound 1.581 µM) | relative viability (GSK-J4 + Linsitinib; first compound 5 µM) | relative viability (GSK-J4 + Linsitinib; first compound 15.81 µM) | relative viability (GSK-J4 + Linsitinib; first compound 50 µM) | relative viability (AZ3146 + Pemetrexed; first compound 0.08 µM) | relative viability (AZ3146 + Pemetrexed; first compound 0.253 µM) | relative viability (AZ3146 + Pemetrexed; first compound 0.8 µM) | relative viability (AZ3146 + Pemetrexed; first compound 2.53 µM) | relative viability (AZ3146 + Pemetrexed; first compound 8 µM)
1 | NCI-H2347 | 0.587 | 0.354 | 0.562 | 0.49 | 0.612 | 0.522 | 0.677 | 0.822 | 0.647 | 0.699 | 0.829 | 0.78 | 0.885 | 0.961 | 0.651 | 0.42 | 0.418 | 0.458 | 0.404 | 0.416
2 | LC-2-ad | 0.697 | 0.724 | 0.697 | 0.733 | 0.658 | 0.365 | 0.511 | 0.481 | 0.494 | 0.321 | 0.795 | 0.831 | 0.794 | 0.769 | 0.839 | 0.245 | 0.29 | 0.271 | 0.262 | 0.259
3 | HCC-15 | 0.618 | 0.737 | 0.726 | 0.725 | 0.648 | 0.83 | 0.863 | 0.768 | 0.677 | 0.445 | 0.845 | 0.793 | 0.892 | 0.785 | 0.629 | 0.222 | 0.22 | 0.221 | 0.224 | 0.207
4 | PC-3 [JPC-3] | 1.04 | – | 1.01 | 1.25 | 1.09 | 0.912 | 0.983 | 0.974 | 1.03 | 0.984 | 0.883 | 0.928 | 0.961 | 0.908 | 0.945 | 0.999 | – | 1.19 | 1.02 | 0.942
5 | Calu-6 | 0.55 | 0.505 | 0.535 | 0.551 | 0.5 | 0.715 | 0.763 | 0.701 | 0.465 | 0.256 | 0.868 | 0.924 | 0.719 | 0.927 | 0.869 | – | – | – | – | –
6 | NCI-H1793 | 0.864 | 0.859 | 0.667 | 0.892 | 0.544 | – | – | – | – | – | 0.973 | 0.71 | 0.94 | 0.594 | 0.493 | 1.02 | 0.792 | 0.565 | 1.16 | 0.51
7 | NCI-H727 | 0.632 | 0.632 | 0.701 | 0.853 | 0.775 | 0.813 | 0.796 | 0.8 | 0.586 | 0.365 | 0.245 | – | 0.568 | 0.267 | 0.222 | – | – | – | – | –
8 | EBC-1 | 0.699 | 0.71 | 0.671 | 0.634 | 0.397 | 0.192 | 0.213 | 0.173 | 0.194 | 0.166 | 0.937 | 0.758 | 0.789 | 0.795 | 0.709 | – | – | – | – | –
9 | NCI-H522 | 0.68 | 0.685 | 0.515 | 0.695 | 0.596 | – | – | – | – | – | – | – | – | – | – | 0.917 | 0.905 | 0.898 | 1.09 | 0.968
10 | NCI-H1648 | – | – | 0.987 | 1.18 | 0.802 | – | – | – | – | – | – | – | – | – | – | – | – | 1.02 | 0.801 | 0.62
11 | NCI-H1650 | 0.857 | 0.722 | 0.752 | 0.736 | 0.621 | 0.933 | 0.95 | 0.84 | 0.95 | 0.489 | – | – | – | – | – | 0.323 | 0.324 | 0.366 | 0.376 | 0.386
12 | NCI-H2342 | 0.464 | 0.474 | 0.529 | 0.487 | 0.695 | – | – | – | – | – | – | – | – | – | – | 0.69 | 0.821 | 0.807 | 0.756 | 0.752
13 | NCI-H1299 | 0.932 | 0.941 | 0.944 | 0.938 | 0.789 | 0.964 | 0.961 | 0.952 | 0.636 | 0.511 | 0.979 | 0.881 | 0.813 | 0.962 | 0.988 | – | – | – | – | –
14 | SW 900 | 0.706 | – | 0.785 | 0.846 | 0.754 | – | – | – | – | – | – | – | – | – | – | 0.459 | – | 0.445 | 0.492 | 0.429
15 | IA-LM | 0.775 | 0.808 | 0.91 | 0.919 | 0.486 | – | 0.654 | 0.898 | 0.615 | 0.115 | 0.556 | 0.288 | 0.634 | 0.463 | 0.201 | – | – | – | – | –
16 | NCI-H1395 | 0.485 | 0.532 | – | 0.568 | 0.552 | – | – | – | – | – | 1.06 | 1.22 | 0.877 | 0.813 | 0.745 | 0.783 | 0.746 | – | 0.91 | 0.661
17 | A549 | 0.203 | 0.268 | 0.419 | 0.43 | 0.269 | 0.655 | 0.777 | 0.453 | 0.0847 | 0.0598 | 0.559 | – | 0.733 | 0.442 | 0.578 | – | – | – | – | –
18 | ABC-1 | 0.744 | 0.707 | 0.714 | 0.78 | 0.606 | 0.852 | 1.38 | 1.03 | 1.07 | 0.452 | 0.788 | 0.632 | 1.07 | 0.802 | 0.378 | – | – | – | – | –
